Data as given in PMC7568786, “Tilianin Protects against Ischemia/Reperfusion-Induced Myocardial Injury through the Inhibition of the Ca^2+/Calmodulin-Dependent Protein Kinase II-Dependent Apoptotic and Inflammatory Signaling Pathways” (BioMed Research International, 2020).

Target: T1, CaMKIIδ (Homo sapiens, UniProt Q13557)
T1 construct: gene CAMK2D; recombinant CaMKIIδ (Invitrogen)
Assay: in vitro kinase assay with autocamtide-2 peptide, ADP quantification
Assay type: biochemical

T1 sequence (Q13557 2-499): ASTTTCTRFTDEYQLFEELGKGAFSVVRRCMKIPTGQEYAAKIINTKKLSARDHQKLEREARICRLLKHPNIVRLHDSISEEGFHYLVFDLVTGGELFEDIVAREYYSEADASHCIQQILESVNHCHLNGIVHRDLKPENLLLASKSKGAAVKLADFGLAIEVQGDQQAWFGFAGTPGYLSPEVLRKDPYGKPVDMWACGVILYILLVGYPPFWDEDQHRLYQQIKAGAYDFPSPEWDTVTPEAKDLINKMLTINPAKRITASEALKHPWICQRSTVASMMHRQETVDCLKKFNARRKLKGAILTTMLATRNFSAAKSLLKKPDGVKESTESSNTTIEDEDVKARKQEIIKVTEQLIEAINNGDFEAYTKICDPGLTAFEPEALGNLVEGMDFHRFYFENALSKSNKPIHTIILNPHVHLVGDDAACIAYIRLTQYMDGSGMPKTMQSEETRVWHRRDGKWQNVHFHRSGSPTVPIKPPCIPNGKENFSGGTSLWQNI

IC50	SMILES
6.37 µM	COc1ccc(S(=O)(=O)N(CCO)c2ccccc2CN(C)C/C=C/c2ccc(Cl)cc2)cc1 [KN93]
> 100 µM	COc1ccc(-c2cc(=O)c3c(O)cc(O[C@@H]4O[C@H](CO)[C@@H](O)[C@H](O)[C@H]4O)cc3o2)cc1 [tilianin]
